# Assay results published in patent US9498429B2, “Use of a vegetal extract for the prevention and treatment of hair loss” (GIULIANI S.P.A., priority 2013, dated 2016).
# Tested on: murine fibroblasts BALB3T3
# Assay: MTT with induced oxidative stress-BALB3T3
# Format: cell-based
# Conditions: 25 μM; oxidative stress induced with H2O2
# Description: (§1) Non-treated cells in DMEM medium (Dulbecco's Modified Eagle's Medium, ATCC, Manassas, Va., USA) added to 2.5% fetal bovine serum (FCS), 1% non-essential amino acids (NEAA), a 1% penicillin and streptomycin mixture (Pen-Strep Mix), and maintained in 25 cm^2 (96 well) culture plates at 37° C. and under 5% CO2.
# as §1, with “Cells treated for 2 hrs with 1 mM hydrogen peroxide” for “Non-treated cells”, “CO2 (in the dark). […]” for “CO2.”
# Studies conducted in 2005 by Rajapakse and colleagues (2005) have highlighted the possibility of employing a widely used and versatile method such that of the MTT essay for studying the in vitro anti-oxidant activity of active compounds. […] The possible protecting effects may be determined by the assessment of the post-oxidative stress cell viability of cells pre-treated/pre-exposed to the active compounds to be tested, in comparison to cells subjected to the same oxidative stress. […]
# The data were expressed as the percentage of cell viability as compared to the non-stressed control cells (ctr), according to the following formula: cell viability/ctr=(Abs sample/Abs ctr)*100 […]
smiles,measurement,value
Cc1c(C)c2c(c(C)c1O)CC[C@@](C)(CCC[C@H](C)CCC[C@H](C)CCCC(C)C)O2 [α-tocopherol],Scavenger activity,43.10
